Patent publication US9944687B2, “Compounds and their effects on feeding behaviour” (Imperial Innovations Limited, priority 2011, dated 2018)
Where no end group is shown, it is not given here.

Assay: pair feeding in rats (food intake and body weight)
Format: in vivo, Male Wistar rats
Conditions: for body weight gain versus corresponding pair-fed (PF) group: 10 days; for body weight gain versus corresponding pair-fed (PF) group / overall body weight change by the end of the 10 day test period versus saline control: FIG. 12b; for total food intake over 10 days / overall body weight change by the end of the 10 day test period versus saline control: daily injection, exendin-4 30, 285 100, 373 50, 398 200 nmol/kg; for total food intake over 10 days: FIG. 12a
Excerpt: Pair feeding is a technique used to separate the weight loss observed in a cohort of animals which has been caused by appetite suppression from the weight loss caused by the induction of metabolic changes. Pair-feeding studies require daily measurement of body weight (BW) and food intake (FI). In pair-feeding studies, rats were divided into three weight-matched groups. Group 1 (the “saline” group) were given a daily injection of saline and allowed access to ad libitum food. Group 2 (identified by the code of the compound administered) were given daily injection of a selected compound of the invention and allowed access to ad libitum food.

In the case of “HSQGTFTSDYSKYLDSQAVHLFIQWLLNGGPSSGAPPPS [compound 237]”, the “body weight compared to the saline control” value (100 nmol/kg daily) is reported as “reduction in body weight compared to the saline control” and the “body weight reduction versus pair-fed (G237 PF) group” value (100 nmol/kg daily) is reported as “not solely mediated by a reduction in food intake”.

With “His Ser Gln Gly Thr Phe Thr Ser Asp Tyr Ser His Tyr Leu Asp Ser Lys Ala Val His Leu Phe Ile Gln Trp Leu Leu Asn Gly-NH2 (HSQGTFTSDYSHYLDSKAVHLFIQWLLNG-NH2) [compound 285]” the “body weight gain versus corresponding pair-fed (PF) group” value was “lower weight gains than the corresponding paired feeding groups”, the “total food intake over 10 days” value was “less overall food intake” and the “overall body weight change by the end of the 10 day test period versus saline control” value (shortened to “overall body weight change by the end”) was “lower body weight gain than the saline control group”.

With “His Ser Gln Gly Thr Phe Thr Ser Asp Tyr Ser Lys Tyr Leu Asp Ser Gln Ala Val Arg Leu Phe Ile Glu Trp Leu Leu Asn Gly-NH2 (HSQGTFTSDYSKYLDSQAVRLFIEWLLNG-NH2) [compound 398]” the “body weight gain versus corresponding pair-fed (PF) group” value was “lower weight gains than the corresponding paired feeding groups”, the “total food intake over 10 days” value was “less overall food intake” and the “overall body weight change by the end” value was “lower body weight gain than the saline control group”.

For “His Ser Gln Gly Thr Phe Thr Ser Asp Tyr Ser Lys Tyr Leu Glu Ser Gln Ala Val His Leu Phe Ile Glu Trp Leu Lys Asn Gly-NH2 (HSQGTFTSDYSKYLESQAVHLFIEWLKNG-NH2) [compound 373]”, the “body weight gain versus corresponding pair-fed (PF) group” value was “lower weight gains than the corresponding paired feeding groups”, the “total food intake over 10 days” value was “less overall food intake” and the “overall body weight change by the end” value was “lower body weight gain than the saline control group”.
